Test results: the supplement of paper PMC10307832

Columns and labels:
Experiment in all cases: relative viability (nuclei count vs DMSO), 5 days (fraction); higher = more cells survive
Vismodegib + Crizotinib = compound: CS(=O)(=O)c1ccc(C(=O)Nc2ccc(Cl)c(-c3ccccn3)c2)c(Cl)c1 [Vismodegib] + C[C@@H](Oc1cc(-c2cnn(C3CCNCC3)c2)cnc1N)c1c(Cl)ccc(F)c1Cl [Crizotinib] (partner 1 µM)
How it was run: (§1)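 Lung cancer cell lines, seeded in 1536-well plates, were treated the following day by pin tool with a single drug or with five library-drug doses (not always all listed) in √10 steps on top of a fixed anchor-drug dose. Cells were fixed and nuclei stained in one step after 5 days, and nuclei were counted. Relative viability is the nuclei count for treated wells divided by that for vehicle wells, reported as medians of duplicate plates.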

Ruxolitinib + Pemetrexed = compound: N#CC[C@H](C1CCCC1)n1cc(-c2ncnc3[nH]ccc23)cn1 [Ruxolitinib] + Nc1nc2[nH]cc(CCc3ccc(C(=O)N[C@@H](CCC(=O)O)C(=O)O)cc3)c2c(=O)[nH]1 [Pemetrexed] (partner 0.2 µM)
How it was run: as §1

Ruxolitinib + Crizotinib = compound: N#CC[C@H](C1CCCC1)n1cc(-c2ncnc3[nH]ccc23)cn1 [Ruxolitinib] + C[C@@H](Oc1cc(-c2cnn(C3CCNCC3)c2)cnc1N)c1c(Cl)ccc(F)c1Cl [Crizotinib] (partner 1 µM)
How it was run: as §1

Ruxolitinib + Luminespib = compound: N#CC[C@H](C1CCCC1)n1cc(-c2ncnc3[nH]ccc23)cn1 [Ruxolitinib] + CCNC(=O)c1noc(-c2cc(C(C)C)c(O)cc2O)c1-c1ccc(CN2CCOCC2)cc1 [Luminespib] (partner 0.01 µM)
How it was run: as §1

## NCI-H1734
Vismodegib + Crizotinib; first compound 0.08 µM
  relative viability: 0.687
Vismodegib + Crizotinib; first compound 0.253 µM
  relative viability: 0.654
Vismodegib + Crizotinib; first compound 0.8 µM
  relative viability: 0.762
Vismodegib + Crizotinib; first compound 2.53 µM
  relative viability: 0.62
Vismodegib + Crizotinib; first compound 8 µM
  relative viability: 0.756
Ruxolitinib + Pemetrexed; first compound 0.08 µM
  relative viability: 0.399
Ruxolitinib + Pemetrexed; first compound 0.253 µM
  relative viability: 0.366
Ruxolitinib + Pemetrexed; first compound 0.8 µM
  relative viability: 0.437
Ruxolitinib + Pemetrexed; first compound 2.53 µM
  relative viability: 0.369
Ruxolitinib + Pemetrexed; first compound 8 µM
  relative viability: 0.456
Ruxolitinib + Crizotinib; first compound 0.08 µM
  relative viability: 0.66
Ruxolitinib + Crizotinib; first compound 0.253 µM
  relative viability: 0.721
Ruxolitinib + Crizotinib; first compound 0.8 µM
  relative viability: 0.795
Ruxolitinib + Crizotinib; first compound 2.53 µM
  relative viability: 0.633
Ruxolitinib + Crizotinib; first compound 8 µM
  relative viability: 0.559
Ruxolitinib + Luminespib; first compound 0.08 µM
  relative viability: 0.167
Ruxolitinib + Luminespib; first compound 0.253 µM
  relative viability: 0.197
Ruxolitinib + Luminespib; first compound 0.8 µM
  relative viability: 0.198
Ruxolitinib + Luminespib; first compound 2.53 µM
  relative viability: 0.162
Ruxolitinib + Luminespib; first compound 8 µM
  relative viability: 0.185

## NCI-H1755
Vismodegib + Crizotinib; first compound 0.08 µM
  relative viability: 0.817
Vismodegib + Crizotinib; first compound 0.253 µM
  relative viability: 0.842
Vismodegib + Crizotinib; first compound 0.8 µM
  relative viability: 0.964
Vismodegib + Crizotinib; first compound 2.53 µM
  relative viability: 0.839
Vismodegib + Crizotinib; first compound 8 µM
  relative viability: 0.859
Ruxolitinib + Pemetrexed; first compound 0.08 µM
  relative viability: 0.459
Ruxolitinib + Pemetrexed; first compound 0.253 µM
  relative viability: 0.448
Ruxolitinib + Pemetrexed; first compound 0.8 µM
  relative viability: 0.414
Ruxolitinib + Pemetrexed; first compound 2.53 µM
  relative viability: 0.407
Ruxolitinib + Pemetrexed; first compound 8 µM
  relative viability: 0.42
Ruxolitinib + Crizotinib; first compound 0.08 µM
  relative viability: 0.87
Ruxolitinib + Crizotinib; first compound 0.253 µM
  relative viability: 0.897
Ruxolitinib + Crizotinib; first compound 0.8 µM
  relative viability: 0.887
Ruxolitinib + Crizotinib; first compound 2.53 µM
  relative viability: 0.784
Ruxolitinib + Crizotinib; first compound 8 µM
  relative viability: 0.476
Ruxolitinib + Luminespib; first compound 0.08 µM
  relative viability: 0.452
Ruxolitinib + Luminespib; first compound 0.253 µM
  relative viability: 0.45
Ruxolitinib + Luminespib; first compound 0.8 µM
  relative viability: 0.699
Ruxolitinib + Luminespib; first compound 2.53 µM
  relative viability: 0.351
Ruxolitinib + Luminespib; first compound 8 µM
  relative viability: 0.362

## NCI-H1792
Vismodegib + Crizotinib; first compound 0.08 µM
  relative viability: 0.93
Vismodegib + Crizotinib; first compound 0.253 µM
  relative viability: 0.939
Vismodegib + Crizotinib; first compound 0.8 µM
  relative viability: 0.976
Vismodegib + Crizotinib; first compound 2.53 µM
  relative viability: 0.986
Vismodegib + Crizotinib; first compound 8 µM
  relative viability: 0.907
Ruxolitinib + Pemetrexed; first compound 0.08 µM
  relative viability: 0.883
Ruxolitinib + Pemetrexed; first compound 0.253 µM
  relative viability: 0.608
Ruxolitinib + Pemetrexed; first compound 0.8 µM
  relative viability: 0.778
Ruxolitinib + Pemetrexed; first compound 2.53 µM
  relative viability: 0.564
Ruxolitinib + Pemetrexed; first compound 8 µM
  relative viability: 0.425
Ruxolitinib + Crizotinib; first compound 0.08 µM
  relative viability: 1.01
Ruxolitinib + Crizotinib; first compound 0.253 µM
  relative viability: 0.893
Ruxolitinib + Crizotinib; first compound 0.8 µM
  relative viability: 0.946
Ruxolitinib + Crizotinib; first compound 2.53 µM
  relative viability: 0.753
Ruxolitinib + Crizotinib; first compound 8 µM
  relative viability: 0.85
Ruxolitinib + Luminespib; first compound 0.08 µM
  relative viability: 0.407
Ruxolitinib + Luminespib; first compound 0.253 µM
  relative viability: 0.447
Ruxolitinib + Luminespib; first compound 0.8 µM
  relative viability: 0.473
Ruxolitinib + Luminespib; first compound 2.53 µM
  relative viability: 0.517
Ruxolitinib + Luminespib; first compound 8 µM
  relative viability: 0.434

## NCI-H1915
Vismodegib + Crizotinib; first compound 0.08 µM
  relative viability: 0.903
Vismodegib + Crizotinib; first compound 0.253 µM
  relative viability: 0.874
Vismodegib + Crizotinib; first compound 0.8 µM
  relative viability: 0.877
Vismodegib + Crizotinib; first compound 2.53 µM
  relative viability: 0.866
Vismodegib + Crizotinib; first compound 8 µM
  relative viability: 0.965
Ruxolitinib + Pemetrexed; first compound 0.08 µM
  relative viability: 0.512
Ruxolitinib + Pemetrexed; first compound 0.253 µM
  relative viability: 0.501
Ruxolitinib + Pemetrexed; first compound 0.8 µM
  relative viability: 0.515
Ruxolitinib + Pemetrexed; first compound 2.53 µM
  relative viability: 0.518
Ruxolitinib + Pemetrexed; first compound 8 µM
  relative viability: 0.439
Ruxolitinib + Crizotinib; first compound 0.08 µM
  relative viability: 0.903
Ruxolitinib + Crizotinib; first compound 0.253 µM
  relative viability: 0.925
Ruxolitinib + Crizotinib; first compound 0.8 µM
  relative viability: 1.01
Ruxolitinib + Crizotinib; first compound 2.53 µM
  relative viability: 0.835
Ruxolitinib + Crizotinib; first compound 8 µM
  relative viability: 0.864
Ruxolitinib + Luminespib; first compound 0.08 µM
  relative viability: 0.711
Ruxolitinib + Luminespib; first compound 0.253 µM
  relative viability: 0.762
Ruxolitinib + Luminespib; first compound 0.8 µM
  relative viability: 0.83
Ruxolitinib + Luminespib; first compound 2.53 µM
  relative viability: 0.578
Ruxolitinib + Luminespib; first compound 8 µM
  relative viability: 0.503

## NCI-H1944
Vismodegib + Crizotinib; first compound 0.08 µM
  relative viability: 0.993
Vismodegib + Crizotinib; first compound 0.253 µM
  relative viability: 1.22
Vismodegib + Crizotinib; first compound 0.8 µM
  relative viability: 1.08
Vismodegib + Crizotinib; first compound 2.53 µM
  relative viability: 1.05
Vismodegib + Crizotinib; first compound 8 µM
  relative viability: 1.08
Ruxolitinib + Pemetrexed; first compound 0.08 µM
  relative viability: 0.671
Ruxolitinib + Pemetrexed; first compound 0.253 µM
  relative viability: 0.68
Ruxolitinib + Pemetrexed; first compound 0.8 µM
  relative viability: 0.651
Ruxolitinib + Pemetrexed; first compound 2.53 µM
  relative viability: 0.65
Ruxolitinib + Pemetrexed; first compound 8 µM
  relative viability: 0.694
Ruxolitinib + Crizotinib; first compound 0.08 µM
  relative viability: 0.99
Ruxolitinib + Crizotinib; first compound 0.253 µM
  relative viability: 0.955
Ruxolitinib + Crizotinib; first compound 0.8 µM
  relative viability: 0.998
Ruxolitinib + Crizotinib; first compound 2.53 µM
  relative viability: 0.928
Ruxolitinib + Crizotinib; first compound 8 µM
  relative viability: 1.02
Ruxolitinib + Luminespib; first compound 0.08 µM
  relative viability: 0.696
Ruxolitinib + Luminespib; first compound 0.253 µM
  relative viability: 0.628
Ruxolitinib + Luminespib; first compound 0.8 µM
  relative viability: 0.723
Ruxolitinib + Luminespib; first compound 2.53 µM
  relative viability: 0.73
Ruxolitinib + Luminespib; first compound 8 µM
  relative viability: 0.716

## NCI-H1975
Vismodegib + Crizotinib; first compound 0.08 µM
  relative viability: 0.953
Vismodegib + Crizotinib; first compound 0.253 µM
  relative viability: 0.957
Vismodegib + Crizotinib; first compound 0.8 µM
  relative viability: 0.945
Vismodegib + Crizotinib; first compound 2.53 µM
  relative viability: 0.826
Vismodegib + Crizotinib; first compound 8 µM
  relative viability: 0.94
Ruxolitinib + Pemetrexed; first compound 0.08 µM
  relative viability: 0.283
Ruxolitinib + Pemetrexed; first compound 0.253 µM
  relative viability: 0.334
Ruxolitinib + Pemetrexed; first compound 0.8 µM
  relative viability: 0.329
Ruxolitinib + Pemetrexed; first compound 2.53 µM
  relative viability: 0.318
Ruxolitinib + Pemetrexed; first compound 8 µM
  relative viability: 0.266
Ruxolitinib + Crizotinib; first compound 0.08 µM
  relative viability: 1.07
Ruxolitinib + Crizotinib; first compound 0.253 µM
  relative viability: 1.01
Ruxolitinib + Crizotinib; first compound 0.8 µM
  relative viability: 1.05
Ruxolitinib + Crizotinib; first compound 2.53 µM
  relative viability: 0.858
Ruxolitinib + Crizotinib; first compound 8 µM
  relative viability: 0.547
Ruxolitinib + Luminespib; first compound 0.08 µM
  relative viability: 0.172
Ruxolitinib + Luminespib; first compound 0.253 µM
  relative viability: 0.191
Ruxolitinib + Luminespib; first compound 0.8 µM
  relative viability: 0.241
Ruxolitinib + Luminespib; first compound 2.53 µM
  relative viability: 0.232
Ruxolitinib + Luminespib; first compound 8 µM
  relative viability: 0.153

## NCI-H1993
Vismodegib + Crizotinib; first compound 0.08 µM
  relative viability: 0.995
Vismodegib + Crizotinib; first compound 0.253 µM
  relative viability: 0.958
Vismodegib + Crizotinib; first compound 0.8 µM
  relative viability: 0.768
Vismodegib + Crizotinib; first compound 2.53 µM
  relative viability: 0.851
Vismodegib + Crizotinib; first compound 8 µM
  relative viability: 0.906
Ruxolitinib + Pemetrexed; first compound 0.08 µM
  relative viability: 0.662
Ruxolitinib + Pemetrexed; first compound 0.253 µM
  relative viability: 0.525
Ruxolitinib + Pemetrexed; first compound 0.8 µM
  relative viability: 0.618
Ruxolitinib + Pemetrexed; first compound 2.53 µM
  relative viability: 0.633
Ruxolitinib + Pemetrexed; first compound 8 µM
  relative viability: 0.621
Ruxolitinib + Crizotinib; first compound 0.08 µM
  relative viability: 0.785
Ruxolitinib + Crizotinib; first compound 0.253 µM
  relative viability: 0.801
Ruxolitinib + Crizotinib; first compound 0.8 µM
  relative viability: 0.873
Ruxolitinib + Crizotinib; first compound 2.53 µM
  relative viability: 0.61
Ruxolitinib + Crizotinib; first compound 8 µM
  relative viability: 0.935
Ruxolitinib + Luminespib; first compound 0.08 µM
  relative viability: 0.758
Ruxolitinib + Luminespib; first compound 0.253 µM
  relative viability: 0.784
Ruxolitinib + Luminespib; first compound 0.8 µM
  relative viability: 0.863
Ruxolitinib + Luminespib; first compound 2.53 µM
  relative viability: 0.508
Ruxolitinib + Luminespib; first compound 8 µM
  relative viability: 0.803

## NCI-H2009
Vismodegib + Crizotinib; first compound 0.08 µM
  relative viability: 0.94
Vismodegib + Crizotinib; first compound 0.253 µM
  relative viability: 1.05
Vismodegib + Crizotinib; first compound 0.8 µM
  relative viability: 1.13
Vismodegib + Crizotinib; first compound 2.53 µM
  relative viability: 1.01
Vismodegib + Crizotinib; first compound 8 µM
  relative viability: 1.12
Ruxolitinib + Pemetrexed; first compound 0.08 µM
  relative viability: 1.03
Ruxolitinib + Pemetrexed; first compound 0.253 µM
  relative viability: 1.03
Ruxolitinib + Pemetrexed; first compound 0.8 µM
  relative viability: 1.03
Ruxolitinib + Pemetrexed; first compound 2.53 µM
  relative viability: 0.936
Ruxolitinib + Pemetrexed; first compound 8 µM
  relative viability: 0.745
Ruxolitinib + Crizotinib; first compound 0.08 µM
  relative viability: 1.1
Ruxolitinib + Crizotinib; first compound 0.253 µM
  relative viability: 0.996
Ruxolitinib + Crizotinib; first compound 0.8 µM
  relative viability: 1.12
Ruxolitinib + Crizotinib; first compound 2.53 µM
  relative viability: 0.769
Ruxolitinib + Crizotinib; first compound 8 µM
  relative viability: 0.832
Ruxolitinib + Luminespib; first compound 0.08 µM
  relative viability: 0.99
Ruxolitinib + Luminespib; first compound 0.253 µM
  relative viability: 1.1
Ruxolitinib + Luminespib; first compound 0.8 µM
  relative viability: 0.99
Ruxolitinib + Luminespib; first compound 2.53 µM
  relative viability: 0.93
Ruxolitinib + Luminespib; first compound 8 µM
  relative viability: 0.817
